Laboratory results reported in PMC3917258, “6-Bromoisatin Found in Muricid Mollusc Extracts Inhibits Colon Cancer Cell Proliferation and Induces Apoptosis, Preventing Early Stage Tumor Formation in a Colorectal Cancer Rodent Model” (Marine Drugs, 2013).

Columns and labels:
[1] = tested on: caspase 3/7 activity in HT29 cells; assay: Caspase-Glo 3/7 assay; type: cell-based, human; conditions: 12 h
Method: All media and chemicals were purchased from Sigma Aldrich (Castle Hill, NSW, Australia) unless otherwise stated. HT29 human colorectal cancer cell line (passage no. 36-42) were cultured (37 °C and 5% CO2) in Dulbecco’s Modified Eagle’s Medium (DMEM) supplemented with 4500 mg/L L-glutamine, 10% FBS, 100 U/mL Penicillin/Streptomycin and 1% Non-essential Amino Acid (100×), until the cells reached 70% confluence. The cells were harvested from flasks by trypsinization (1× Trypsin-EDTA) and were seeded (20,000 cells/well) into clear 96-well plates (Costar®, Mt Martha, VIC, Australia) for measurement of cell viability and white (opaque) 96-well plates (Interpath, Heidelberg West, VIC, Australia) for determination of apoptosis and necrosis. HT29 cells were incubated for 48 h, then the media was removed and the cells were washed with PBS. To treat the cells, synthetic 6-bromoisatin was dissolved in 100% dimethylsulphoxide (DMSO) then diluted in media and added to the cells at a range of concentrations from 0.1 to 0.01 mg/mL, in triplicate (final DMSO concentration of 1%). 1% DMSO controls were also included on each plate. Staurosporine (5 µM) for apoptosis and lysis solution (5 μL/well, Promega, Alexandria, NSW, Australia) for necrosis were added to the white plates in triplicate, as positive controls. All cells were treated for 12 h. Morphological changes in the cells were observed on an Olympus CK2 inverted optical microscope (×400 magnification) 12 h after treatment. To measure cell viability, the MTT assay was applied, which measures the reduction of MTT tetrazolium salt to formazan, as previously described. To measure necrosis and apoptosis, CytoTox-ONE Homogeneous Membrane Integrity Assay reagent (Promega) and Caspase-Glo 3/7® assay (Promega) were applied respectively, according to our previous study. These assays were all repeated in triplicate on three separate occasions (n = 3).

[2] = tested on: epithelial cells of distal colon; assay: AARGC mouse model: apoptotic index; type: in vivo, mice (C57BL/6J)
Method: (§1) This experiment was conducted under Flinders animal welfare approval number 751-10. A total of 38 wild-type (C57BL/6J) male mice aged 10 weeks were obtained from the Animal Resource Centre, Perth, Western Australia. Mice were divided randomly into 4 groups (ten mice in each treatment group and 8 mice in the sunflower oil only control group) and housed in 8 cages (four to five mice per cage). The mice were given water and food (rodent chow) ad libitum and maintained at the temperature of 22 ± 2 °C and humidity of 80% ± 10% with a 12 h light/dark cycle. Mice were weighed every five days and on the day of kill, and monitored daily for signs of illness, such as weight and hair loss, diarrhea, constipation, rectal bleeding, labored breathing, lethargy, eye and nose discharge.
(§2) To detect the early stage prevention of colon cancer, an established AARGC rodent model with injection of the carcinogen AOM was used. Synthetic 6-bromoisatin at 3 different dosages (0.025, 0.05 and 0.1 mg/g body weight) was administered to mice by daily oral gavage in 100 µL sunflower oil, containing 0.02% Vitamin E, for two weeks. The control group was gavaged with sunflower oil (containing 0.02% Vitamin E) only. After two weeks, all mice were injected with a single intraperitoneal (i.p.) injection of AOM at a dosage of 10 mg/kg bodyweight and euthanized 6 h later by cervical dislocation under anesthesia. […] The distal colon of each mouse was excised and fixed in 10% buffered formalin for 24 h and then embedded in paraffin for histological and immunohistological examination.
Distal colon segments were embedded in paraffin and sectioned at 4 µm (3–4 sections per mouse), then stained with hematoxylin, to evaluate apoptosis in epithelial cells of distal colon sections. The slides were examined under a light microscope (Olympus BH-2, Mt Waverly, VIC, Australia, 400× magnification) to identify the apoptotic cells, by characteristic morphological changes such as cell shrinkage, condensed chromatin and sharply delineated cell borders surrounded by an unstained halo [26, 49]. Twenty randomly chosen crypts were used to calculate the percent of apoptotic cells per crypt. The mean crypt column height was also determined.

distal colon crypts = assay: AARGC mouse model: crypt height; type: in vivo, mice (C57BL/6J); conditions: 0.025-0.1 mg/g daily oral gavage 14 days, 6 h post AOM
Method: as §1
To detect the early stage prevention of colon cancer, an established AARGC rodent model with injection of the carcinogen AOM was used. Synthetic 6-bromoisatin at 3 different dosages (0.025, 0.05 and 0.1 mg/g body weight) was administered to mice by daily oral gavage in 100 µL sunflower oil, containing 0.02% Vitamin E, for two weeks. […]
Distal colon segments were embedded in paraffin and sectioned at 4 µm (3–4 sections per mouse), then stained with hematoxylin, to evaluate apoptosis in epithelial cells of distal colon sections. […] The mean crypt column height was also determined.

Blood hematology = type: in vivo, mice (C57BL/6J)
Method: as §2
Blood samples (0.5–1 mL) were obtained from the mice under anesthesia by cardiac puncture at time of kill and transferred to Gribbles Veterinary Pathology laboratory, Adelaide within heparinized vacutainer tubes then centrifuged to separate into the cell layer for hematology analysis (Abbott Cell Dyn 3700 analyzer, North Ryde, NSW, Australia) and plasma for biochemistry analysis (Siemens Advia 1800 chemistry analyzer, Erlangen, Germany). The plasma levels of the liver enzymes AST, ALT and ALP were assessed as indicators of hepatotoxicity.

[3] = 0.025 mg/g, n = 6, 6 h after AOM 10 mg/kg
[4] = 0.05 mg/g, n = 6, 6 h after AOM 10 mg/kg
[5] = 0.1 mg/g, n = 8, 6 h after AOM 10 mg/kg

In the case of O=C1Nc2cc(Br)ccc2C1=O [6-bromoisatin, 6-Bromoindole-2,3-dione], the “caspase 3/7 activity” value ([1]; 446 μM = 0.1 mg/mL, compared to DMSO control) is reported as “minor but significant reduction”, the “caspase 3/7 activity” value ([1]; concentrations <0.1 mg/mL) is reported as “did not increase caspase 3/7 activity” and the “increase in apoptotic index over the oil control” value ([2]; 0.05 mg/g daily oral gavage two weeks, distal colon, 6 h post AOM 10 mg/kg) is reported as 2.3 fold. The “apoptotic index lower than the dose of 0.05 mg/g” value ([2]; 0.1 mg/g daily oral gavage two weeks, distal colon) was 40%, the apoptotic index ([2]; 0.1 mg/g daily oral gavage two weeks, distal colon, compared with control) was “significantly induced apoptosis” and the apoptotic index ([2]; lowest concentration (0.025 mg/g) daily oral gavage two weeks, compared to AOM injected control) was “not a significant difference”. For the same compound, the colon crypt height (distal colon crypts) was “no significant effect”, the “Hct (Hematocrit)” value (Blood hematology; [3]) was 0.4 ± 0.01 L/L and the Hemoglobin (Blood hematology; [3]) was 139.7 ± 5.1 g/L. The Lymphocytes (Blood hematology; [3]) was 3.3 ± 1.1 ×10^9/L, the “MCH (Mean Corpuscular Hemoglobin)” value (Blood hematology; [3]) was 15.0 ± 0.0 pg and the “MCHC (Mean Corpuscular Hemoglobin Concentration)” value (from here on “MCHC”) (Blood hematology; [3]) was 322.7 ± 1.5 g/L. The “MCV (Mean Corpuscular Volume)” value (Blood hematology; [3]) was 46.5 ± 0.8 fL, the Monocytes (Blood hematology; [3]) was 0.2 ± 0.3 ×10^9/L and the Neutrophils (Blood hematology; [3]) was 1.6 ± 0.8 ×10^9/L. The Red cell count (Blood hematology; [3]) was 9.3 ± 0.4 ×10^12/L, the White cell count (Blood hematology; [3]) was 5.2 ± 1.8 ×10^9/L and the “Hct (Hematocrit)” value (Blood hematology; [4]) was 0.4 ± 0.01 L/L. The Hemoglobin (Blood hematology; [4]) was 135.0 ± 3.5 g/L, the Lymphocytes (Blood hematology; [4]) was 3.4 ± 0.8 ×10^9/L and the “MCH (Mean Corpuscular Hemoglobin)” value (Blood hematology; [4]) was 15.0 ± 0.0 pg. The “MCHC” value (Blood hematology; [4]) was 319.0 ± 2.8 g/L, the “MCV (Mean Corpuscular Volume)” value (Blood hematology; [4]) was 46.7 ± 1.2 fL and the Monocytes (Blood hematology; [4]) was 0.2 ± 0.1 ×10^9/L. The Neutrophils (Blood hematology; [4]) was 2.2 ± 1.3 ×10^9/L, the Red cell count (Blood hematology; [4]) was 9.1 ± 0.4 ×10^12/L and the White cell count (Blood hematology; [4]) was 5.8 ± 1.5 ×10^9/L. The “Hct (Hematocrit)” value (Blood hematology; [5]) was 0.4 ± 0.02 L/L, the Hemoglobin (Blood hematology; [5]) was 138.4 ± 5.7 g/L and the Lymphocytes (Blood hematology; [5]) was 2.3 ± 0.9 ×10^9/L. The “MCH (Mean Corpuscular Hemoglobin)” value (Blood hematology; [5]) was 15.0 ± 0.0 pg, the “MCHC” value (Blood hematology; [5]) was 319.8 ± 3.0 g/L and the “MCV (Mean Corpuscular Volume)” value (Blood hematology; [5]) was 46.4 ± 0.7 fL. The Monocytes (Blood hematology; [5]) was 0.1 ± 0.1 ×10^9/L, the Neutrophils (Blood hematology; [5]) was 0.8 ± 0.7 ×10^9/L and the Red cell count (Blood hematology; [5]) was 9.4 ± 0.5 ×10^12/L. For the same compound, the White cell count (Blood hematology; [5]) was 3.2 ± 1.1 ×10^9/L.
